Assay results as given in PubChem BioAssay AID2060626 (Molecular Pharmacology Branch, DTP, NCI, 2025).

tested on: 168753-222-R-J1-PDC complex spheroid viability; assay: Anticancer human tumor 168753-222-R-J1-PDC patient-derived bladder carcinoma cell line growth inhibition [CLK]; conditions: curve of first compound; second compound 10 µM
In short: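 Patient-derived tumor cells grown as complex spheroids with HUVEC endothelial cells and mesenchymal stem cells, treated with drug combinations. Concentrations descend in half-log steps from near clinical Cmax, or from 10 microM if Cmax unknown.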
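Note: viability measured after seven days of drug exposure.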
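Throughout, for viability, T/C: luminescence signal used as surrogate for viable cell amount; 100% = DMSO vehicle control wells.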

Row | Structure (SMILES) | IC50 [nM]
1 | Cn1ncnc1[C@H]1c2n[nH]c(=O)c3cc(F)cc(c23)N[C@@H]1c1ccc(F)cc1 + CNC(=O)c1ccc(Nc2nc(OC3CCCC3)c3c(-c4ccc5nc(C)oc5c4)c[nH]c3n2)c(OC)c1 | < 0.316
2 | Nc1ccn(C2OC(CO)C(O)C2(F)F)c(=O)n1 (stereo unspecified) + CNC(=O)c1ccc(Nc2nc(OC3CCCC3)c3c(-c4ccc5nc(C)oc5c4)c[nH]c3n2)c(OC)c1 | < 31.6
3 | O=C(c1cc(Cc2n[nH]c(=O)c3ccccc23)ccc1F)N1CCN(C(=O)C2CC2)CC1 + CNC(=O)c1ccc(Nc2nc(OC3CCCC3)c3c(-c4ccc5nc(C)oc5c4)c[nH]c3n2)c(OC)c1 | < 31.6
4 | O=c1[nH]cc(F)c(=O)[nH]1 + CNC(=O)c1ccc(Nc2nc(OC3CCCC3)c3c(-c4ccc5nc(C)oc5c4)c[nH]c3n2)c(OC)c1 | < 31.6

same assay, conditions: second compound 0.0316 µM; first compound 0.000316 µM; stronger effect = lower value

Row | Structure (SMILES) | viability, T/C [%]
5 | Cn1ncnc1[C@H]1c2n[nH]c(=O)c3cc(F)cc(c23)N[C@@H]1c1ccc(F)cc1 + CNC(=O)c1ccc(Nc2nc(OC3CCCC3)c3c(-c4ccc5nc(C)oc5c4)c[nH]c3n2)c(OC)c1 | 95

same assay, conditions: second compound 0.0316 µM; first compound 0.001 µM; stronger effect = lower value

Row | Structure (SMILES) | viability, T/C [%]
6 | Cn1ncnc1[C@H]1c2n[nH]c(=O)c3cc(F)cc(c23)N[C@@H]1c1ccc(F)cc1 + CNC(=O)c1ccc(Nc2nc(OC3CCCC3)c3c(-c4ccc5nc(C)oc5c4)c[nH]c3n2)c(OC)c1 | 116

same assay, conditions: second compound 0.0316 µM; first compound 0.00316 µM; stronger effect = lower value

Row | Structure (SMILES) | viability, T/C [%]
7 | CCc1c2c(nc3ccc(O)cc13)-c1cc3c(c(=O)n1C2)COC(=O)[C@]3(O)CC + CNC(=O)c1ccc(Nc2nc(OC3CCCC3)c3c(-c4ccc5nc(C)oc5c4)c[nH]c3n2)c(OC)c1 | 109
8 | Cn1ncnc1[C@H]1c2n[nH]c(=O)c3cc(F)cc(c23)N[C@@H]1c1ccc(F)cc1 + CNC(=O)c1ccc(Nc2nc(OC3CCCC3)c3c(-c4ccc5nc(C)oc5c4)c[nH]c3n2)c(OC)c1 | 110

same assay, conditions: second compound 0.0316 µM; first compound 0.01 µM; stronger effect = lower value

Row | Structure (SMILES) | viability, T/C [%]
9 | CCc1c2c(nc3ccc(O)cc13)-c1cc3c(c(=O)n1C2)COC(=O)[C@]3(O)CC + CNC(=O)c1ccc(Nc2nc(OC3CCCC3)c3c(-c4ccc5nc(C)oc5c4)c[nH]c3n2)c(OC)c1 | 96.2
10 | Cn1ncnc1[C@H]1c2n[nH]c(=O)c3cc(F)cc(c23)N[C@@H]1c1ccc(F)cc1 + CNC(=O)c1ccc(Nc2nc(OC3CCCC3)c3c(-c4ccc5nc(C)oc5c4)c[nH]c3n2)c(OC)c1 | 113

same assay, conditions: second compound 0.0316 µM; first compound 0.0316 µM; stronger effect = lower value

Row | Structure (SMILES) | viability, T/C [%]
11 | CCc1c2c(nc3ccc(O)cc13)-c1cc3c(c(=O)n1C2)COC(=O)[C@]3(O)CC + CNC(=O)c1ccc(Nc2nc(OC3CCCC3)c3c(-c4ccc5nc(C)oc5c4)c[nH]c3n2)c(OC)c1 | 77.2
12 | Cn1ncnc1[C@H]1c2n[nH]c(=O)c3cc(F)cc(c23)N[C@@H]1c1ccc(F)cc1 + CNC(=O)c1ccc(Nc2nc(OC3CCCC3)c3c(-c4ccc5nc(C)oc5c4)c[nH]c3n2)c(OC)c1 | 104
13 | Nc1ccn(C2OC(CO)C(O)C2(F)F)c(=O)n1 (stereo unspecified) + CNC(=O)c1ccc(Nc2nc(OC3CCCC3)c3c(-c4ccc5nc(C)oc5c4)c[nH]c3n2)c(OC)c1 | 95.2
14 | O=C(c1cc(Cc2n[nH]c(=O)c3ccccc23)ccc1F)N1CCN(C(=O)C2CC2)CC1 + CNC(=O)c1ccc(Nc2nc(OC3CCCC3)c3c(-c4ccc5nc(C)oc5c4)c[nH]c3n2)c(OC)c1 | 105
15 | O=c1[nH]cc(F)c(=O)[nH]1 + CNC(=O)c1ccc(Nc2nc(OC3CCCC3)c3c(-c4ccc5nc(C)oc5c4)c[nH]c3n2)c(OC)c1 | 110

same assay, conditions: second compound 0.0316 µM; first compound 0.1 µM; stronger effect = lower value

Row | Structure (SMILES) | viability, T/C [%]
16 | CCc1c2c(nc3ccc(O)cc13)-c1cc3c(c(=O)n1C2)COC(=O)[C@]3(O)CC + CNC(=O)c1ccc(Nc2nc(OC3CCCC3)c3c(-c4ccc5nc(C)oc5c4)c[nH]c3n2)c(OC)c1 | 48.9
17 | Cn1ncnc1[C@H]1c2n[nH]c(=O)c3cc(F)cc(c23)N[C@@H]1c1ccc(F)cc1 + CNC(=O)c1ccc(Nc2nc(OC3CCCC3)c3c(-c4ccc5nc(C)oc5c4)c[nH]c3n2)c(OC)c1 | 108
18 | Nc1ccn(C2OC(CO)C(O)C2(F)F)c(=O)n1 (stereo unspecified) + CNC(=O)c1ccc(Nc2nc(OC3CCCC3)c3c(-c4ccc5nc(C)oc5c4)c[nH]c3n2)c(OC)c1 | 73.2
19 | O=C(c1cc(Cc2n[nH]c(=O)c3ccccc23)ccc1F)N1CCN(C(=O)C2CC2)CC1 + CNC(=O)c1ccc(Nc2nc(OC3CCCC3)c3c(-c4ccc5nc(C)oc5c4)c[nH]c3n2)c(OC)c1 | 113
20 | O=c1[nH]cc(F)c(=O)[nH]1 + CNC(=O)c1ccc(Nc2nc(OC3CCCC3)c3c(-c4ccc5nc(C)oc5c4)c[nH]c3n2)c(OC)c1 | 113

same assay, conditions: second compound 0.0316 µM; first compound 0.316 µM; stronger effect = lower value

Row | Structure (SMILES) | viability, T/C [%]
21 | CCc1c2c(nc3ccc(O)cc13)-c1cc3c(c(=O)n1C2)COC(=O)[C@]3(O)CC + CNC(=O)c1ccc(Nc2nc(OC3CCCC3)c3c(-c4ccc5nc(C)oc5c4)c[nH]c3n2)c(OC)c1 | 35.8
22 | Nc1ccn(C2OC(CO)C(O)C2(F)F)c(=O)n1 (stereo unspecified) + CNC(=O)c1ccc(Nc2nc(OC3CCCC3)c3c(-c4ccc5nc(C)oc5c4)c[nH]c3n2)c(OC)c1 | 48.7
23 | O=C(c1cc(Cc2n[nH]c(=O)c3ccccc23)ccc1F)N1CCN(C(=O)C2CC2)CC1 + CNC(=O)c1ccc(Nc2nc(OC3CCCC3)c3c(-c4ccc5nc(C)oc5c4)c[nH]c3n2)c(OC)c1 | 103
24 | O=c1[nH]cc(F)c(=O)[nH]1 + CNC(=O)c1ccc(Nc2nc(OC3CCCC3)c3c(-c4ccc5nc(C)oc5c4)c[nH]c3n2)c(OC)c1 | 106

same assay, conditions: second compound 0.0316 µM; first compound 1 µM; stronger effect = lower value

Row | Structure (SMILES) | viability, T/C [%]
25 | CCc1c2c(nc3ccc(O)cc13)-c1cc3c(c(=O)n1C2)COC(=O)[C@]3(O)CC + CNC(=O)c1ccc(Nc2nc(OC3CCCC3)c3c(-c4ccc5nc(C)oc5c4)c[nH]c3n2)c(OC)c1 | 14.6
26 | Nc1ccn(C2OC(CO)C(O)C2(F)F)c(=O)n1 (stereo unspecified) + CNC(=O)c1ccc(Nc2nc(OC3CCCC3)c3c(-c4ccc5nc(C)oc5c4)c[nH]c3n2)c(OC)c1 | 57.2
